# PubChem BioAssay (NCI)
#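 Cells were grown in 96-well plates and exposed to each compound for 48 hours at five concentrations; endpoints were interpolated linearly between bracketing concentrations, or set to the highest concentration if not reached. The concentration for 50% growth inhibition is given as GI50. Definition used: TGI = concentration required for complete inhibition of growth.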
# Legend:
# Test in all cases: NCI tumour cell line growth inhibition, 48 h
# 786-0 renal = tested on: 786-0 renal
# A498 renal = tested on: A498 renal
# A549 NSCLC = tested on: A549 NSCLC
# ACHN renal = tested on: ACHN renal
# BT-549 breast = tested on: BT-549 breast
# CAKI-1 renal = tested on: CAKI-1 renal
# CCRF-CEM leukemia = tested on: CCRF-CEM leukemia
# DU-145 prostate = tested on: DU-145 prostate
# EKVX NSCLC = tested on: EKVX NSCLC
# HCC-2998 colon = tested on: HCC-2998 colon
# HCT-116 colon = tested on: HCT-116 colon
# HOP-62 NSCLC = tested on: HOP-62 NSCLC
# HOP-92 NSCLC = tested on: HOP-92 NSCLC
# HS 578T breast = tested on: HS 578T breast
# HT29 colon = tested on: HT29 colon
# IGROV1 ovarian = tested on: IGROV1 ovarian
# K-562 leukemia = tested on: K-562 leukemia
# KM12 colon = tested on: KM12 colon
# LOX IMVI melanoma = tested on: LOX IMVI melanoma
# MDA-MB-231 breast = tested on: MDA-MB-231 breast
# MOLT-4 leukemia = tested on: MOLT-4 leukemia
# NCI-H226 lung = tested on: NCI-H226 lung
# NCI-H23 lung = tested on: NCI-H23 lung
# NCI-H460 lung = tested on: NCI-H460 lung
# NCI/ADR-RES ovarian = tested on: NCI/ADR-RES ovarian
# OVCAR-3 ovarian = tested on: OVCAR-3 ovarian
# OVCAR-4 ovarian = tested on: OVCAR-4 ovarian
# OVCAR-5 ovarian = tested on: OVCAR-5 ovarian
# OVCAR-8 ovarian = tested on: OVCAR-8 ovarian
# PC-3 prostate = tested on: PC-3 prostate
# RPMI-8226 leukemia = tested on: RPMI-8226 leukemia
# SF-268 CNS = tested on: SF-268 CNS
# SF-295 CNS = tested on: SF-295 CNS
# SF-539 CNS = tested on: SF-539 CNS
# SK-MEL-2 melanoma = tested on: SK-MEL-2 melanoma
# SK-MEL-28 melanoma = tested on: SK-MEL-28 melanoma
# SK-OV-3 ovarian = tested on: SK-OV-3 ovarian
# SN12C renal = tested on: SN12C renal
# SNB-19 CNS = tested on: SNB-19 CNS
# SNB-75 CNS = tested on: SNB-75 CNS
# SR leukemia = tested on: SR leukemia
# SW-620 colon = tested on: SW-620 colon
# T-47D breast = tested on: T-47D breast
# TK-10 renal = tested on: TK-10 renal
# U251 CNS = tested on: U251 CNS
# UACC-62 melanoma = tested on: UACC-62 melanoma
# UO-31 renal = tested on: UO-31 renal
# COLO 205 colon = tested on: COLO 205 colon
# HCT-15 colon = tested on: HCT-15 colon
# M14 melanoma = tested on: M14 melanoma
# MALME-3M melanoma = tested on: MALME-3M melanoma
# MCF7 breast = tested on: MCF7 breast
# MDA-MB-435 = tested on: MDA-MB-435
# NCI-H522 lung = tested on: NCI-H522 lung
# RXF 393 renal = tested on: RXF 393 renal
# SK-MEL-5 melanoma = tested on: SK-MEL-5 melanoma
# UACC-257 melanoma = tested on: UACC-257 melanoma
structure (smiles),measurement,setting,value
Cc1cc2[nH]c(=O)c3c4ncccc4cn3c2cc1C,GI50,786-0 renal,3.06 µM
same,TGI,786-0 renal,8.42 µM
same,GI50,A498 renal,9.38 µM
same,TGI,A498 renal,84.5 µM
same,GI50,A549 NSCLC,4.82 µM
same,TGI,A549 NSCLC,> 100 µM
same,GI50,ACHN renal,2.44 µM
same,TGI,ACHN renal,> 100 µM
same,GI50,BT-549 breast,14.5 µM
same,TGI,BT-549 breast,41.4 µM
same,GI50,CAKI-1 renal,3.21 µM
same,TGI,CAKI-1 renal,> 100 µM
same,GI50,CCRF-CEM leukemia,2.95 µM
same,TGI,CCRF-CEM leukemia,> 100 µM
same,GI50,DU-145 prostate,4.13 µM
same,TGI,DU-145 prostate,> 100 µM
same,GI50,EKVX NSCLC,> 100 µM
same,TGI,EKVX NSCLC,> 100 µM
same,GI50,HCC-2998 colon,2.59 µM
same,TGI,HCC-2998 colon,7.97 µM
same,GI50,HCT-116 colon,1.92 µM
same,TGI,HCT-116 colon,4.53 µM
same,GI50,HOP-62 NSCLC,3.81 µM
same,TGI,HOP-62 NSCLC,39.4 µM
same,GI50,HOP-92 NSCLC,2.94 µM
same,TGI,HOP-92 NSCLC,16.3 µM
same,GI50,HS 578T breast,5.93 µM
same,TGI,HS 578T breast,52.2 µM
same,GI50,HT29 colon,2.98 µM
same,TGI,HT29 colon,> 100 µM
same,GI50,IGROV1 ovarian,2.75 µM
same,TGI,IGROV1 ovarian,> 100 µM
same,GI50,K-562 leukemia,2.54 µM
same,TGI,K-562 leukemia,> 100 µM
same,GI50,KM12 colon,3.17 µM
same,TGI,KM12 colon,> 100 µM
same,GI50,LOX IMVI melanoma,1.72 µM
same,TGI,LOX IMVI melanoma,3.34 µM
same,GI50,MDA-MB-231 breast,4.64 µM
same,TGI,MDA-MB-231 breast,> 100 µM
same,GI50,MOLT-4 leukemia,3.54 µM
same,TGI,MOLT-4 leukemia,> 100 µM
same,GI50,NCI-H226 lung,6.04 µM
same,TGI,NCI-H226 lung,> 100 µM
same,GI50,NCI-H23 lung,8.86 µM
same,TGI,NCI-H23 lung,> 100 µM
same,GI50,NCI-H460 lung,2.17 µM
same,TGI,NCI-H460 lung,6.2 µM
same,GI50,NCI/ADR-RES ovarian,2.93 µM
same,TGI,NCI/ADR-RES ovarian,> 100 µM
same,GI50,OVCAR-3 ovarian,2.02 µM
same,TGI,OVCAR-3 ovarian,4.33 µM
same,GI50,OVCAR-4 ovarian,4.17 µM
same,TGI,OVCAR-4 ovarian,> 100 µM
same,GI50,OVCAR-5 ovarian,> 100 µM
same,TGI,OVCAR-5 ovarian,> 100 µM
same,GI50,OVCAR-8 ovarian,2.89 µM
same,TGI,OVCAR-8 ovarian,> 100 µM
same,GI50,PC-3 prostate,5.83 µM
same,TGI,PC-3 prostate,> 100 µM
same,GI50,RPMI-8226 leukemia,2.66 µM
same,TGI,RPMI-8226 leukemia,7.61 µM
same,GI50,SF-268 CNS,3.44 µM
same,TGI,SF-268 CNS,> 100 µM
same,GI50,SF-295 CNS,1.85 µM
same,TGI,SF-295 CNS,3.84 µM
same,GI50,SF-539 CNS,1.93 µM
same,TGI,SF-539 CNS,3.98 µM
same,GI50,SK-MEL-2 melanoma,5.69 µM
same,TGI,SK-MEL-2 melanoma,40.3 µM
same,GI50,SK-MEL-28 melanoma,4.7 µM
same,TGI,SK-MEL-28 melanoma,> 100 µM
same,GI50,SK-OV-3 ovarian,6.62 µM
same,TGI,SK-OV-3 ovarian,73.7 µM
same,GI50,SN12C renal,3.45 µM
same,TGI,SN12C renal,> 100 µM
same,GI50,SNB-19 CNS,5.48 µM
same,TGI,SNB-19 CNS,> 100 µM
same,GI50,SNB-75 CNS,3.3 µM
same,TGI,SNB-75 CNS,15.7 µM
same,GI50,SR leukemia,2.17 µM
same,TGI,SR leukemia,6.16 µM
same,GI50,SW-620 colon,2.89 µM
same,TGI,SW-620 colon,> 100 µM
same,GI50,T-47D breast,2.37 µM
same,TGI,T-47D breast,> 100 µM
same,GI50,TK-10 renal,4.36 µM
same,TGI,TK-10 renal,61.8 µM
same,GI50,U251 CNS,2.67 µM
same,TGI,U251 CNS,9.18 µM
same,GI50,UACC-62 melanoma,2.06 µM
same,TGI,UACC-62 melanoma,4.33 µM
same,GI50,UO-31 renal,1.68 µM
same,TGI,UO-31 renal,4.58 µM
N#Cc1ccc2[nH]cc(Cc3c[nH]c4ccc(C#N)cc34)c2c1,GI50,786-0 renal,13.4 µM
same,TGI,786-0 renal,38 µM
same,GI50,A498 renal,10.1 µM
same,TGI,A498 renal,22 µM
same,GI50,A549 NSCLC,9.73 µM
same,TGI,A549 NSCLC,24 µM
same,GI50,ACHN renal,12.2 µM
same,TGI,ACHN renal,35.5 µM
same,GI50,BT-549 breast,9.57 µM
same,TGI,BT-549 breast,20.7 µM
same,GI50,CAKI-1 renal,8.92 µM
same,TGI,CAKI-1 renal,22.1 µM
same,GI50,CCRF-CEM leukemia,12.8 µM
same,TGI,CCRF-CEM leukemia,39.4 µM
same,GI50,COLO 205 colon,15.8 µM
same,TGI,COLO 205 colon,> 50 µM
same,GI50,DU-145 prostate,16.3 µM
same,TGI,DU-145 prostate,> 50 µM
same,GI50,EKVX NSCLC,14.9 µM
same,TGI,EKVX NSCLC,> 50 µM
same,GI50,HCC-2998 colon,9.77 µM
same,TGI,HCC-2998 colon,18.6 µM
same,GI50,HCT-116 colon,10.9 µM
same,TGI,HCT-116 colon,28.4 µM
same,GI50,HCT-15 colon,13.5 µM
same,TGI,HCT-15 colon,42.2 µM
same,GI50,HOP-62 NSCLC,11.6 µM
same,TGI,HOP-62 NSCLC,28.5 µM
same,GI50,HOP-92 NSCLC,8.52 µM
same,TGI,HOP-92 NSCLC,22.8 µM
same,GI50,HS 578T breast,11.4 µM
same,TGI,HS 578T breast,25.7 µM
same,GI50,HT29 colon,18.4 µM
same,TGI,HT29 colon,> 50 µM
same,GI50,IGROV1 ovarian,12.3 µM
same,TGI,IGROV1 ovarian,35.7 µM
same,GI50,K-562 leukemia,14.7 µM
same,TGI,K-562 leukemia,> 50 µM
same,GI50,KM12 colon,9.88 µM
same,TGI,KM12 colon,20.1 µM
same,GI50,LOX IMVI melanoma,6.99 µM
same,TGI,LOX IMVI melanoma,18.9 µM
same,GI50,M14 melanoma,10.9 µM
same,TGI,M14 melanoma,24.3 µM
same,GI50,MALME-3M melanoma,6.98 µM
same,TGI,MALME-3M melanoma,21.1 µM
same,GI50,MCF7 breast,15.2 µM
same,TGI,MCF7 breast,> 50 µM
same,GI50,MDA-MB-231 breast,10.3 µM
same,TGI,MDA-MB-231 breast,25.1 µM
same,GI50,MDA-MB-435,11.4 µM
same,TGI,MDA-MB-435,24 µM
same,GI50,MOLT-4 leukemia,7.53 µM
same,TGI,MOLT-4 leukemia,19.5 µM
same,GI50,NCI-H226 lung,17.9 µM
same,TGI,NCI-H226 lung,> 50 µM
same,GI50,NCI-H23 lung,15.2 µM
same,TGI,NCI-H23 lung,35.4 µM
same,GI50,NCI-H460 lung,9.16 µM
same,TGI,NCI-H460 lung,23.5 µM
same,GI50,NCI-H522 lung,7.45 µM
same,TGI,NCI-H522 lung,17.4 µM
same,GI50,NCI/ADR-RES ovarian,12.5 µM
same,TGI,NCI/ADR-RES ovarian,36.3 µM
same,GI50,OVCAR-3 ovarian,16.7 µM
same,TGI,OVCAR-3 ovarian,49 µM
same,GI50,OVCAR-4 ovarian,18.5 µM
same,TGI,OVCAR-4 ovarian,> 50 µM
same,GI50,OVCAR-5 ovarian,12.3 µM
same,TGI,OVCAR-5 ovarian,29.8 µM
same,GI50,OVCAR-8 ovarian,10.2 µM
same,TGI,OVCAR-8 ovarian,28.2 µM
same,GI50,PC-3 prostate,9.86 µM
same,TGI,PC-3 prostate,27.8 µM
same,GI50,RPMI-8226 leukemia,13.9 µM
same,TGI,RPMI-8226 leukemia,49.7 µM
same,GI50,RXF 393 renal,10.7 µM
same,TGI,RXF 393 renal,34.9 µM
same,GI50,SF-268 CNS,11.5 µM
same,TGI,SF-268 CNS,31.7 µM
same,GI50,SF-295 CNS,8.84 µM
same,TGI,SF-295 CNS,22.4 µM
same,GI50,SF-539 CNS,8.64 µM
same,TGI,SF-539 CNS,16.9 µM
same,GI50,SK-MEL-2 melanoma,9.63 µM
same,TGI,SK-MEL-2 melanoma,21 µM
same,GI50,SK-MEL-28 melanoma,17.4 µM
same,TGI,SK-MEL-28 melanoma,> 50 µM
same,GI50,SK-MEL-5 melanoma,8.7 µM
same,TGI,SK-MEL-5 melanoma,17.7 µM
same,GI50,SN12C renal,17 µM
same,TGI,SN12C renal,> 50 µM
same,GI50,SNB-19 CNS,17.2 µM
same,TGI,SNB-19 CNS,> 50 µM
same,GI50,SNB-75 CNS,20.4 µM
same,TGI,SNB-75 CNS,> 50 µM
same,GI50,SR leukemia,7.99 µM
same,TGI,SR leukemia,36.7 µM
same,GI50,SW-620 colon,17.8 µM
same,TGI,SW-620 colon,> 50 µM
same,GI50,T-47D breast,10.6 µM
same,TGI,T-47D breast,32.8 µM
same,GI50,TK-10 renal,13.5 µM
same,TGI,TK-10 renal,33.5 µM
same,GI50,U251 CNS,15.7 µM
same,TGI,U251 CNS,48.5 µM
same,GI50,UACC-257 melanoma,10.1 µM
same,TGI,UACC-257 melanoma,23.4 µM
same,GI50,UACC-62 melanoma,8.42 µM
same,TGI,UACC-62 melanoma,20.1 µM
same,GI50,UO-31 renal,8.64 µM
same,TGI,UO-31 renal,20.3 µM
